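A five-concentration, 48-hour dose response in 96-well plates underlies each endpoint, interpolated linearly between surrounding concentrations. TGI denotes the concentration required for complete inhibition of growth.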
Assays:
Test in all cases: NCI anticancer screen, dose series, 48 h
[1] = tested on: MOLT-4 leukemia
[2] = tested on: DMS 273 small cell lung
[3] = tested on: OVCAR-8 ovarian
[4] = tested on: RXF-631 renal
[5] = tested on: DLD-1 colon
[6] = tested on: SNB-78 CNS
[7] = tested on: UACC-257 melanoma
[8] = tested on: DMS 114 small cell lung
[9] = tested on: SK-MEL-5 melanoma
[10] = tested on: UO-31 renal
[11] = tested on: EKVX NSCLC
[12] = tested on: HCC-2998 colon
[13] = tested on: ACHN renal
[14] = tested on: LXFL 529 NSCLC
[15] = tested on: HL-60(TB) leukemia
[16] = tested on: HT29 colon
[17] = tested on: SF-268 CNS
[18] = tested on: SN12C renal
[19] = tested on: CAKI-1 renal
[20] = tested on: NCI-H460 lung
[21] = tested on: U251 CNS
[22] = tested on: OVCAR-3 ovarian
[23] = tested on: NCI-H23 lung
[24] = tested on: NCI-H226 lung
[25] = tested on: OVCAR-4 ovarian
[26] = tested on: A549 NSCLC
[27] = tested on: 786-0 renal
[28] = tested on: MALME-3M melanoma
[29] = tested on: SW-620 colon
[30] = tested on: UACC-62 melanoma
[31] = tested on: SK-MEL-28 melanoma
[32] = tested on: COLO 205 colon
[33] = tested on: HCT-15 colon
[34] = tested on: K-562 leukemia
[35] = tested on: CCRF-CEM leukemia
[36] = tested on: RXF 393 renal
[37] = tested on: IGROV1 ovarian
[38] = tested on: KM20L2 colon
[39] = tested on: SF-295 CNS
[40] = tested on: LOX IMVI melanoma
[41] = tested on: SF-539 CNS
[42] = tested on: SK-MEL-2 melanoma
[43] = tested on: OVCAR-5 ovarian
[44] = tested on: SNB-19 CNS
[45] = tested on: HOP-92 NSCLC
[46] = tested on: HCT-116 colon
[47] = tested on: A498 renal
[48] = tested on: RPMI-8226 leukemia
[49] = tested on: M19-MEL melanoma
[50] = tested on: KM12 colon
[51] = tested on: M14 melanoma
[52] = tested on: HOP-62 NSCLC
[53] = tested on: TK-10 renal
[54] = tested on: SK-OV-3 ovarian
[55] = tested on: SNB-75 CNS
[56] = tested on: SR leukemia
[57] = tested on: NCI-H522 lung
[58] = tested on: XF 498 CNS
[59] = tested on: HOP-18 NSCLC

Measured: TGI

Cc1cc(N(CCC#N)CCC#N)ccc1/C=C(\NC(=O)/C=C/c1ccccc1)NC(=O)Nc1ccccc1C
63.4 µM: [36]
42.7 µM: [21]
62 µM: [45]
not listed: [52] | [53] | [54] | [55] | [56] | [57] | [58] | [59]
> 100 µM: all other assays above

CCN1C(=O)/C(=C\c2coc3ccccc3c2=O)SC1=S
90.1 µM: [41]
not listed: [4]
> 100 µM: all other assays above

Source: PubChem BioAssay (NCI)
